The source of these data is US20060014709A1, “Drug or cosmetic” (priority 2002, published 2006).

Like-named read-outs stand apart in the source and are kept apart here.

The subject of the test is human peripheral blood T lymphocytes / cytotoxic macrophages. It counts as cell-based. An excerpt: Another embodiment of the method for screening a compound which can prevent, mitigate or treat renal glomerular lesions, lesions of pancreatic islets of Langerhans or epidermal lesions include a method for screening a compound in the presence of which a number of produced cytotoxic macrophages is decreased, comprising the steps of (i) inducing cytotoxic macrophages by cultivating human peripheral blood mononuclear cells in RPMI 1640 medium in the presence of lipopolysaccharide and human AB type serum; (ii) at the same time, inducing unfractionated T lymphocytes by cultivating human peripheral blood unfractionated T lymphocytes with or without lipopolysaccharide in the presence of the test compound; (iii) bringing the cytotoxic macrophages obtained in (i) into contact with monolayered autologous erythrocytes in the presence of the unfractionated T lymphocytes obtained in (ii), and measuring a number of produced cytotoxic macrophages; and (iv) comparing with the number of generated cytotoxic macrophages in the absence of the test compound (for convenience, referred to as screening method C).
(a) Induction of cytotoxic macrophages is described below. To 2×10^6PBMC floated on RPMI1640 medium containing human normal serum of type AB, 2 mM of L-glutamine and 5 μg/mL of gentamicin, LPS is added so as to make a concentration 80 μg/mL, and the PBMC is cultivated for 6 days at 37° C. under 5% CO2-95% air to induce cytotoxic macrophages. The PBMC is obtained similarly as in the screening method A. The induced cytotoxic macrophages are recovered from the medium. In the recovering, a known method may be used, including a method of collecting adhered materials with a rubber-policeman (rubber spatula). Then, the recovered cytotoxic macrophages may be washed. In washing, a Hanks solution with about 5 μg/mL of gentamicin is preferably used.
(b) Induction of unfractionated T lymphocytes is described below. First, human peripheral blood unfractionated T lymphocytes is separated as described below. As described in the screening method A, to a PBMC fraction separated by a specific gravity centrifugal method was added sheep erythrocytes treated with neuraminidase and reacted for 20 minutes at 37° C. This solution is gently added to a tube in which Percolls of discontinuous specific gravities are layered, and centrifuged at 400×g for 20 minutes at room temperature. In the layered Percolls of discontinuous specific gravities, fractions of rosetted T lymphocytes and monocytes floating on a layer of not less than d=1.091 are collected respectively. To the fraction of rosetted T lymphocytes is added ammonium chloride to hemolyze the sheep erythrocyte and a fraction of T lymphocytes is obtained. The fraction of monocytes obtained at the same time is washed. […]

As to `O=C1CC[C@@](Sc2ccc(Cl)cc2)(C(=O)OCc2ccccc2)O1` (stereo in doubt) [compound (III-1), 2-(4-chlorophenyl)thio-5-oxo-2-tetrahydrofurancarboxylic acid benzyl ester], the “induction of regulatory CD2^−CD4^+ T lymphocytes (in words)” value is on record as “induces regulatory CD2^−CD4^+ T lymphocytes”. In addition, where the note is “T lymphocytes treated with 0.1 μg/ml of compound”, the “Inhibition rate (%) of SPFC positive cells versus T lymphocytes treated with solvent” value (shortened to “Inhibition rate (%)”) is recorded as 69.2%. For the same compound, the “Inhibition rate (%)” value (T lymphocytes treated with 1 μg/ml of compound) is 53.8%. In addition, where the note is “T lymphocytes treated with 10 μg/ml of compound”, the “Inhibition rate (%)” value amounted to 92.3%.
